Read-outs that look alike come from different tables or passages of the source. Marks after values point to notes of the source that are not given here.
Key:
[1] = Abiotic in vitro digestion (salivary, gastric, duodenal steps) of affron® tablets, HPLC-PAD/MS quantification; format: in vitro ADME; conditions: for Bioactive molecule content, initial sample: affron® before in vitro digestion; for Bioactive molecule content, initial sample / Bioactive molecule content, digested sample, duodenal / Bioactive molecule content, digested sample, gastric / Bioactive molecule content, digested sample, salivary: mean ± SD; for Bioactive molecule content, digested sample, duodenal: after duodenal step, 150 min, pH 7, 37°C, pancreatin and bile extract; for Bioactive molecule content, digested sample, gastric: after gastric step, 90 min, pH 2, 37°C, pepsin; for Bioactive molecule content, digested sample, salivary: after salivary step, 5 min, pH 6.9, 37°C, α-amylase; for Bioaccessibility: after whole in vitro digestion of affron® tablets, relative to initial content
Description: Briefly, the salivary step runs for 5 min at pH 6.9 and 37°C, under aerobic conditions with 3.9 units α-[…]. Then, the samples were transferred for 90 min to the gastric step at pH 2 and 37°C with 71.2 units pepsin/ml under anaerobic conditions. Finally, the duodenal step was set for 150 min at pH 7 and 37°C, with 9.2 mg pancreatin/ml and 55.2 mg bile extract/ml under anaerobic conditions. Samples were taken from every steps and were centrifuged at 7000 g for 40 min at 4°C. […] All samples were analysed at least in duplicate. High-performance liquid chromatography (HPLC) analysis of bioactive components from initial and digested saffron extract was performed using an Agilent Technologies 1220 Infinity series system equipped with a photodiode array detector (PAD) according to Kell et al., while the analysis of crocetin was according to Umigai et al.. […] To estimate the percentage of bioaccessibility of the main bioactive compounds of affron®, an equation was used according to Ordoudi et al.

[2] = parameters: method as in PMID 21112749; conditions: human, single oral dose of 22.5 mg of crocetin from G. jasminoides; cited from earlier work
[3] = parameters: method as in PMID 23638292; conditions: human, single oral dose of 16 mg of saffron crocetins; cited from earlier work
[4] = Single-dose pharmacokinetics of crocetin in plasma after oral affron® tablets in healthy volunteers; format: in vivo, human; conditions: for Detection in plasma after affron® intake: human plasma, 0.5-3 h and 24 h after 56 or 84 mg affron®, HPLC
Description: A single dose, randomized, double blinded study was used to evaluate the pharmacokinetics of two different saffron doses (56 mg and 84 mg). The randomization code was generated by Random Allocation Software, sealed envelope (London, UK). Enrolled participants were then allocated to one of two groups: group 1: consumed 4 × 14 mg of affron® tablets (56 mg single dose); group: 2 : 6 × 14 mg of affron® tablets (84 mg single dose).
The subjects of the pharmacokinetics were adult male (n = 5) and female (n = 8; nonpregnant and nonlactating) healthy volunteers of 18–30 years age. All participants self-reported to be in normal physical health (BMI < 30) and passed the exclusion screening. Exclusion criteria included suffering clinically significant medical condition, such as, but not limited to, cardiovascular, neurological, psychiatric, renal, immunological, endocrine (including uncontrolled diabetes or thyroid disease), or uncontrolled haematological abnormalities. Other exclusion criteria were the use within the past 3 months of the tested compounds and/or antioxidants; no current use of prescription medications except the oral contraceptive pill in women; and known allergy to any tested compound and/or antioxidant.
All participants were advised to fast from 10 : 00 pm prior to the study until the collection of the first blood sample. Fasting was broken immediately after dosing the corresponding tablets. At time 0 h and at 4 h after dosing, balanced breakfasts (410 kcal, approximately 30% of them from fats) and lunches (625 kcal, approximately 30% from fats) were served at the center. The meals were poor in carotenoids. Subjects remained onsite for the full first 6 hours of sample collection and returned to the center again for the 24 h samples. Subjects were monitored and asked to report any possible side-effects experienced due to intake of the tablets during the whole 24 h time after the intake of the tablets.
For crocetin pharmacokinetic analysis, blood samples (3 ml collected into tubes with EDTA) were drawn prior to affron® supplementation (time 0 h), between time 30 and 180 min at every 30 min and 24 h after supplementation. The blood tubes were briefly mixed by inversion and put on ice and centrifuged (600 g, 4°C for 10 min) to separate the plasma. The EDTA-plasma of every sample was carefully removed in 3 aliquots (500 μl each) and stored at −20°C for less than 48 h before being finally transported and stored at −80°C.
Plasma samples were extracted based on the method described and validated by Mohammadpour et al.. Briefly, plasma samples were thawed to room temperature. Then, 20 μl of an internal standard solution of 13-cis-retinoic acid and 120 μl acetonitrile were added to 100 μl of sample. The samples tubes were capped and vortexed for 10 s and put on ice for 5 min. The samples were then gently rotated for 10 minutes before centrifuging at 12000 g for 10 min. The supernatant was collected and analysed by HPLC.
The efficiency of the extraction process was estimated by the measure of the residual amount of the internal standard, and 13-cis-retinoic acid was recovered after the analysis. The recovery percentage was then applied to the results to calculate the true concentration of crocetin in the samples.
The chromatogram of a sample of pure standard crocetin and its typical absorption wavelength were used to identify and confirm the crocetin peak in every analysis, as shown in Mohammadpour et al..
The crocetin concentration in biological samples was calculated using a standard linear curve at several crocetin concentration and the Shimadzu software for chromatogram analysis. All samples fell within the range of the linear standard curve (concentration (μg/ml) = (AUC + 131.56)/9475). The intra-assay precision CV was 4.8%, and the interassay variability and precision CV were 7.3%, with a blood detection limit of 0.05 μg/ml.
Pharmacokinetic parameters were derived using GraphPad Prism 7.0 (California, USA). […]

Row | Molecule | Reduction of content during gastric digestion ([1]; acid-pepsin environment, gastric step) [%] | Bioactive molecule content, initial sample [1] | Bioactive molecule content, digested sample, duodenal [1] | Bioactive molecule content, digested sample, gastric [1] | Bioactive molecule content, digested sample, salivary [1] | Bioaccessibility [1] [%] | Change of concentration over the whole in vitro digestion process vs initial composition ([1]; salivary, stomach and duodenal steps) | half-life ([4]; both sexes, plasma, crocetin after oral affron® tablets, human, dose not separated, read-out: Plasmatic half-life (converted)) [min] | Clearance ([4]; crocetin after oral affron® tablets, human, dose not separated) [L/h] | Time after administration at which plasma crocetin fell to the HPLC-PAD quantification limit / ceased to be detected ([4]; human, 56 or 84 mg affron®) [h] | Crocetin concentration in plasma 24 h after affron® intake ([4]; human, 24 h, detection limit 0.05 μg/ml) | Decrease of content after the digestion process ([1]; whole in vitro digestion vs initial conditions) [%] | Detection in plasma after affron® intake ([4]; listed as picrocrocin) | Bioactive molecule content, initial sample ([1]; listed as safranal) | Bioactive molecule content, digested sample, duodenal ([1]; listed as safranal) | Increase of content after the digestion process vs initial concentration ([1]; whole in vitro digestion) | Detection in plasma after affron® intake ([4]; listed as safranal) | Cmax [2] [ng/mL] | Cmax [3] [ng/mL] | Detection in plasma after affron® intake [4]
1 | CC(/C=C/C=C(\C)C(=O)O[C@@H]1O[C@H](CO[C@@H]2O[C@H](CO)[C@@H](O)[C@H](O)[C@H]2O)[C@@H](O)[C@H](O)[C@H]1O)=C\C=C\C=C(C)\C=C\C=C(/C)C(=O)O[C@@H]1O[C@H](CO[C@@H]2O[C@H](CO)[C@@H](O)[C@H](O)[C@H]2O)[C@@H](O)[C@H](O)[C@H]1O (relative stereo) [t-crocin-4, trans-crocin-4] | 84 | 1.66 ± 0.04^b %, dry basis | 0.20 ± 0.04^a %, dry basis | 0.26 ± 0.03^a %, dry basis | 1.11 ± 0.43^b %, dry basis | 12.05 |  |  |  |  |  |  |  |  |  |  |  |  |  | 
2 | CC1=C(C=O)C(C)(C)CC(O[C@@H]2O[C@H](CO)[C@@H](O)[C@H](O)[C@H]2O)C1 (stereo partly drawn) [Picrocrocin, 4-(β-D-glucopyranosyloxy)-2,6,6-trimethyl-1-cyclohexene-1-carboxaldehyde] |  | 3.21 ± 0.07^c %, dry basis | 2.61 ± 0.05^b %, dry basis | 2.07 ± 0.02^a %, dry basis | 3.14 ± 0.11^c %, dry basis | 81.31 |  |  |  |  |  | 19 | not detected |  |  |  |  |  |  | absent
3 | Kaempferol diglucoside |  | 0.13 ± 0.01^b,c %, dry basis | 0.09 ± 0.01^a %, dry basis | 0.12 ± 0.01^b %, dry basis | 0.14 ± 0.01^c %, dry basis | 69.23 |  |  |  |  |  |  |  |  |  |  |  |  |  | 

Second part, led by results:

Row | Reduction of content during gastric digestion ([1]; acid-pepsin environment, gastric step) [%] | Bioactive molecule content, initial sample [1] | Bioactive molecule content, digested sample, duodenal [1] | Bioactive molecule content, digested sample, gastric [1] | Bioactive molecule content, digested sample, salivary [1] | Bioaccessibility [1] [%] | Change of concentration over the whole in vitro digestion process vs initial composition ([1]; salivary, stomach and duodenal steps) | half-life ([4]; both sexes, plasma, crocetin after oral affron® tablets, human, dose not separated, read-out: Plasmatic half-life (converted)) [min] | Clearance ([4]; crocetin after oral affron® tablets, human, dose not separated) [L/h] | Time after administration at which plasma crocetin fell to the HPLC-PAD quantification limit / ceased to be detected ([4]; human, 56 or 84 mg affron®) [h] | Crocetin concentration in plasma 24 h after affron® intake ([4]; human, 24 h, detection limit 0.05 μg/ml) | Decrease of content after the digestion process ([1]; whole in vitro digestion vs initial conditions) [%] | Detection in plasma after affron® intake ([4]; listed as picrocrocin) | Bioactive molecule content, initial sample ([1]; listed as safranal) | Bioactive molecule content, digested sample, duodenal ([1]; listed as safranal) | Increase of content after the digestion process vs initial concentration ([1]; whole in vitro digestion) | Detection in plasma after affron® intake ([4]; listed as safranal) | Molecule | Cmax [2] [ng/mL] | Cmax [3] [ng/mL] | Detection in plasma after affron® intake [4]
4 |  | 0.03 ± 0.01^a %, dry basis | 0.02 ± 0.01^a %, dry basis | 0.03 ± 0.01^a %, dry basis | 0.02 ± 0.01^a %, dry basis | 66.67 | did not increase | 51 ± 2.4 | 2.70 ± 0.14 | 3 | below the detection limit |  |  |  |  |  |  | CC(/C=C/C=C(\C)C(=O)O)=C\C=C\C=C(C)\C=C\C=C(/C)C(=O)O [Crocetin] | 280 | 350 | 
5 |  | 0.04 ± 0.01^a %, dry basis | 0.08 ± 0.01^b %, dry basis | 0.21 ± 0.01^c %, dry basis | 0.03 ± 0.00^a %, dry basis | 200.00 |  |  |  |  |  |  |  | 0.04 %, dry basis | 0.08 %, dry basis | about 2 folds | not detected | CC1=C(C=O)C(C)(C)CC=C1 [Safranal] |  |  | not detected or appeared below the detection limit

Source: publication PMC7013346, “Bioaccessibility and Pharmacokinetics of a Commercial Saffron (Crocus sativus L.) Extract” (Evidence-based Complementary and Alternative Medicine : eCAM, 2020)
